The values that follow come from US10092517B2, “Gelated microparticle suitable for oral delivery of therapeutic peptides to the lower intestine” (Insucaps Limited, priority 2015, dated 2018).

This series concerns isolated rat colonic mucosae. Briefly: TEER and Papp of [14C]-mannitol in isolated rat colonic mucosae mounted in Ussing chambers. The series is classed as in vitro ADME.

Description: Ussing Chambers allow the measurement of transport molecules from the apical side of a section of intestinal tissue (rodent) to the basolateral, thereby simulating passage across the gut wall in vivo. […] Their ability to improve intestinal permeability was testing in isolated rat colonic mucosae by measurement of transepithelial electrical resistance (TEER) and permeability of [14C]-mannitol. The permeability of the marker molecule, radioactively labelled sugar ([C14]-Mannitol) was calculated by scintillation counting.
The transepithelial potential difference (PD, mV) is measured in the open circuit configuration after which the tissue is voltage clamped to zero PD by insertion of the required short circuit current (Isc, μA cm^−2) by means of an automatic voltage clamp (EVC-4000 amplifier, WPI, UK).
Isc and PD are alternatively monitored by switching to open circuit conditions for 3 s every 30 s using a timer (Pro-4, WPI, UK). Analogue data was digitised with a Powerlab® data acquisition unit and analyzed with Chart® software package (AD instruments, UK).
Following an equilibration period of 45 min, baseline PD and Isc are measured and TEER (Ω cm^2) is calculated according to Ohm's law.
Transport of radiolabelled mannitol from the apical chamber to the basolateral chamber was used to measure intestinal permeability.
Following addition of [^14C]-mannitol (0.2 μCi) to the apical chamber flux is monitored periodically over two hours by sampling the serosal chamber (100 μL) every 20 minutes for two hours, and apically (100 μL) at time zero, replenishing with fresh KH buffer at each sampling point.
Samples containing [^14C]-mannitol were mixed with scintillation fluid and read in a scintillation analyzer (Packard Tricarb 2900 TR).
The apparent permeability coefficient (Papp) for mannitol and FD4 is calculated according to the equation; Papp (cm/s)=(dQ/dt) (1/AC0), where dQ/dt is the transport rate (mol/s); A is the surface area of the monolayer (cm^2), and C0 is the initial concentration in the donor compartment (mol/mL).

As for `C[C@H](CCC(=O)NCCS(=O)(=O)O)[C@H]1CC[C@H]2[C@@H]3[C@H](O)C[C@@H]4C[C@H](O)CC[C@]4(C)[C@H]3C[C@H](O)[C@]12C` [TCA, taurocholic acid], the TEER entry (10, 25 and 50 mg of TCA added to the encapsulation system) was “reduced TEER”.

As for cyanocobalamin [Vitamin B12], where the note is “25 mg Vitamin B12 in encapsulation systems”, the “enhancement of mannitol flux” value turned out to be 11.5 fold. The TEER entry (Vitamin B12 in encapsulation systems, over 2 hours) is listed as “significantly reduced TEER”.
